The values below come from ChEMBL document CHEMBL1133859, “Unprecedented sugar-dependent in vivo antitumor activity of carbohydrate-pendant cis-diamminedichloroplatinum(II) complexes” (Bioorg Med Chem Lett, 2001).

The series in a line: Lethal dose in mice. The format is toxicity. The settings on record: mouse, in vivo.

CISPLATIN: the LD50 (commonly the dose at which mortality reaches 50%) worked out at 10 mg/kg.
